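Grown in 96-well plates, cells were treated for 48 hours with each compound at five concentrations. Insufficient inhibition: endpoint recorded as highest concentration tested. Abbreviation: GI50, concentration required for 50% inhibition of growth. TGI is the concentration that stops growth completely.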
Key:
Assay in all cases: growth of human tumour cells (NCI), 48 h
[1] = tested on: A498 renal
[2] = tested on: A549 NSCLC
[3] = tested on: HCT-116 colon
[4] = tested on: HOP-62 NSCLC
[5] = tested on: IGROV1 ovarian
[6] = tested on: MCF7 breast
[7] = tested on: NCI-H226 lung
[8] = tested on: SW-620 colon
[9] = tested on: UACC-257 melanoma
[10] = tested on: UO-31 renal

Row | SMILES | TGI [1] [µM] | TGI [2] [µM] | TGI [3] [µM] | TGI [4] [µM] | TGI [5] [µM] | TGI [6] [µM] | TGI [7] [µM] | TGI [8] [µM] | TGI [9] [µM] | TGI [10] [µM] | GI50 [1] [µM] | GI50 [2] [µM] | GI50 [3] [µM] | GI50 [4] [µM] | GI50 [5] [µM] | GI50 [6] [µM] | GI50 [7] [µM] | GI50 [8] [µM] | GI50 [9] [µM] | GI50 [10] [µM]
1 | COC1/C=C\OC2(C)Oc3c(C)c(O)c4c(O)c(c(/C=N\OCCCc5ccccc5)c(O)c4c3C2=O)NC(=O)/C(C)=C\C=C/C(C)C(O)C(C)C(O)C(C)C(OC(C)=O)C1C (stereo unspecified) | 20.5 | 12.9 | 5.26 | 6.75 | 6.74 | 5.6 | 7.09 | 18 | 18.6 |  |  |  |  |  |  |  |  |  |  | 
2 | CCN=C=NCCCN(C)C | > 100 | > 100 | > 100 | > 100 | > 100 | > 100 | > 100 | > 100 | > 100 | > 100 |  |  |  |  |  |  |  |  |  | 
3 | CN1CCC(C(=O)NNc2ccccc2)CC1 | > 100 | > 86.8 | > 100 | > 86.1 | > 100 |  | > 100 | > 63.3 | > 89.2 | 24.4 |  |  |  |  |  |  |  |  |  | 
4 | COc1ccc(-c2nn(-c3ccc(NC(=O)Nc4ccc(Cl)c(Cl)c4)cc3)cc2-c2ccncc2)cc1Cl | 8.04 | > 100 | 11.7 | > 100 | > 100 | 9.34 | > 100 | > 100 | 11.6 | > 100 | 1.75 | 1.56 | 1.65 | 3.73 | 3.44 | 2.37 | 3.49 | 3.31 | 3.14 | 1.51
5 | c1ccc(-n2cnnc2-c2nsc3ccccc23)cc1 |  | > 100 | > 100 | > 100 | > 100 |  |  | > 100 | > 100 | > 100 |  |  |  |  |  |  |  |  |  | 
6 | C=C1CC23CCC4C(C)(C(=O)O)CCCC4(C)C2CCC1C3 (stereo unspecified) | > 100 | > 100 | > 100 | > 100 | 94.9 | > 100 | > 100 | > 100 | > 100 | 88.2 |  |  |  |  |  |  |  |  |  | 
7 | O=C(O)CC(C(=O)O)C1c2ccccc2-c2ccccc21 (stereo unspecified) | > 100 | > 100 | > 100 | > 100 | > 100 | > 100 | > 100 | > 100 | > 100 | > 100 |  |  |  |  |  |  |  |  |  | 
8 | COc1cc(C(C)(C)C)cc(OC)c1C(O)(c1c(OC)cc(C(C)(C)C)cc1OC)c1c(OC)cc(C(C)(C)C)cc1OC | 2.53 | 1.23 | 0.901 |  | 0.873 |  |  | 1.55 | 0.702 | 0.745 | 0.477 | 0.324 | 0.249 |  | 0.316 |  |  | 0.406 | 0.268 | 0.241
9 | O=Nc1ccc(O)c2ncccc12 | 42.4 | 30.4 | 3.04 | 15 | 18.9 | 16.6 | 42.8 | 18.2 | 19.4 | 13.5 |  |  |  |  |  |  |  |  |  | 
10 | Nc1cc(S(=O)(=O)O)cc2cc(S(=O)(=O)O)c(N=Nc3ccc(-c4ccc(N=Nc5c(S(=O)(=O)O)cc6cc(S(=O)(=O)O)cc(N)c6c5O)cc4)cc3)c(O)c12 | > 100 | > 100 | > 100 | > 100 | > 100 | > 100 | > 100 | > 100 | > 100 | > 100 |  |  |  |  |  |  |  |  |  | 
11 | OC(Cc1ccccc1)(Cc1ccccc1)c1ccccc1 | 34.1 | 46.3 | 35.8 | 36.1 | 33.7 |  | 34.2 | 52.2 | 36.7 | 32.4 |  |  |  |  |  |  |  |  |  | 
12 | C=C(C)C(=O)OC1C(C(C)CCCO)=C(CO)CC2OC(=O)C(=C)C21 (stereo unspecified) | 36.5 | 63.7 | 32.2 | > 100 | 38.8 | 24.1 | > 100 | 28.8 | 39.1 |  |  |  |  |  |  |  |  |  |  | 
13 | C=C1C(=O)OC2/C=C(\C)C(=O)CC3OC(C)(C)OC3(C)CC(OC(=O)/C(C)=C/C)C12 (stereo unspecified) | 54.4 | > 100 | > 44.1 | > 100 | 32.3 | > 47.1 | 63.6 | 98.7 | 31.5 | 29.3 |  |  |  |  |  |  |  |  |  | 
14 | O=[N+]([O-])c1ccc(/C=N\Nc2ccc([N+](=O)[O-])cn2)cc1 |  | > 100 | > 100 | > 100 | > 100 | > 100 | > 100 | > 100 | > 100 | > 100 |  |  |  |  |  |  |  |  |  | 
15 | N=C(N)c1ccc(-c2ccc(-c3cncc4ccccc34)s2)cc1F | 2.5 |  |  |  |  |  |  | 3.76 |  | 3.41 | 1.06 |  |  |  |  |  |  | 1.69 |  | 1.77
16 | C=C(CN(C)C)C(=O)c1ccc(C)cc1C | 33.7 | 63.1 | 13 | 47.5 | 17.7 | 13.9 | 34.5 | 13.5 | 24.8 | 22.3 |  |  |  |  |  |  |  |  |  | 
17 | O=S(=O)(O)c1cc(N=Nc2cc(S(=O)(=O)O)c3ccccc3c2O)ccc1/C=C/c1ccc(N=Nc2cc(S(=O)(=O)O)c3ccccc3c2O)cc1S(=O)(=O)O |  | > 1000 | > 433 | > 1000 | > 873 | > 1000 | 594 | > 1000 | > 1000 | > 527 |  |  |  |  |  |  |  |  |  | 
18 | C=C(C)[C@@H]1CC[C@]2(C(=O)Nc3ccccn3)CC[C@]3(C)[C@H](CC[C@@H]4[C@@]5(C)CCCNC(C)(C)[C@@H]5CC[C@]43C)[C@@H]12 | 7.96 |  |  |  |  | 3.07 | 33.4 | 3.51 |  | 2.8 | 2.25 |  |  |  |  | 1.48 | 5.31 | 1.75 |  | 1.44
19 | C=C(C)C1CC2=C(O1)C(=O)c1ccccc1C2=O (stereo unspecified) |  | 42.3 |  | 35.2 | 36.1 |  |  | 48.4 | 26.2 |  |  |  |  |  |  |  |  |  |  | 
